This is an account of results in patent US20160015064A1, “COMPOUNDS, COMPOSITIONS, AND METHODS FOR MODULATING SWEET TASTE” (CHROMOCELL CORPORATION, priority 2013, published 2016).

Each structure is given as a SMILES string. Some results are limits rather than exact numbers.

Experiment [1] relates to perception of sweet taste, in an aqueous solution. Nature of the experiment: Inherent sweetness assessment, difference from control sip and spit method. The experiment is classed as in vivo, humans. The following applies: no sweetener. Here is the method: The aqueous sucrose solutions were prepared by adding, sucrose (by weight), to water to achieve the desired concentration.
Compounds were first prepared as a 500-fold concentrated stock solution in 100% ethanol. These concentrated stocks were then added to water to result in a final ethanol concentration of 0.2%. The control (including positive control) samples were also normalized to 0.2% ethanol. This level of ethanol was not seen to contribute any perceived sweetness.
The intrinsic effect of test compounds on the perception of sweet taste, in an aqueous solution, in humans was evaluated using a difference from control “sip and spit” method employing a verbal category scale.
In this method, panelists (n=12) evaluate one pair of samples at a time—one sample contains water plus compound (i.e. test) while the other contains water without compound (i.e. control). Panelists were instructed to first taste the un-blinded control followed by the test sample and asked to rate the size of sweetness difference between the test and control sample, using a 6 point verbal category scale:
Verbal category scale • No difference • Slight difference • Slight/moderate difference • Moderate difference • Moderate/large difference • Very large difference
4 blinded controls comprising of one negative control (0% sucrose) and 3 positive control samples (0.5% sucrose, 1% sucrose and 2% sucrose) were also included as part of the test to evaluate the ability of panelists to rank the difference in sweetness perception between 0.5% sucrose, 1% sucrose and 2% sucrose compared to 0% sucrose control.
Panelists were instructed not to eat or drink (except water) for at least 1 h before the test. During the test, panelists were instructed to sip each sample, swirl it around their mouth and then expectorate. Panelists cleansed their palates by rinsing with water, eating a cracker and waiting for an interval of about 5 minutes. All samples were tasted at ambient temperatures.
The verbal category response for each test sample was converted into an integer numerical value, from 1 to 6 (e.g. no difference=1 and very large difference=6). Total numbers of panelist responses per integer value were plotted as a histogram. An assessment was then made, comparing mean, mode of the numerical value, and the distribution of the histogram plots, for test samples as compared to that of the positive (0.5% sucrose, 1% sucrose and 2% sucrose) and negative control (0% sucrose) sample. Inherent sweetness levels are then correlated to the positive controls as discrete bins: • Bin 1: 0% sucrose • Bin 2: >0% sucrose—<0.5% sucrose • Bin 3: 0.5% sucrose • Bin 4: >0.5% sucrose—<1% sucrose • Bin 5: 1% sucrose • Bin 6: >1% sucrose—<2% sucrose • Bin 7: 2% sucrose

Experiment [2] has as its system perception of the sweet taste of an aqueous solution of sweetener. Nature of the experiment: Two-alternative forced choice sip and spit method (2AFC). The experiment is classed as in vivo, humans. As to the method:
The effect of the test compounds on the perception of the sweet taste of an aqueous solution of sweetener in humans was evaluated using a two-alternative forced choice “sip and spit” method (2AFC).
The aqueous sweetener solutions were prepared by adding, fructose, sucrose or glucose (by weight), to water to achieve the desired concentration.
Compounds were first prepared as a 500-fold concentrated stock solution in 100% ethanol. These concentrated stocks were then added to the aqueous sweetener solutions to result in a final ethanol concentration of 0.2%. The control (positive and negative) samples were also normalized to 0.2% ethanol. This level of ethanol was not seen to contribute any perceived sweetness.
The 2AFC test used for compound evaluation was a blind and randomized test where taste panelists (n=15) evaluate a pair of sweetener solutions at a time—one sample contains aqueous sweetener solution plus compound (i.e. test) while the other contains aqueous sweetener solution at higher concentration without compound (i.e. positive control). Each test sample was compared against a positive control. For example, if the test sample contained 1× sweetener concentration with compound (e.g. 5% sucrose with compound), the positive control sample contained a 1.1× sweetener concentration (e.g. 5.5% sucrose without compound).
Panelists were instructed not to eat or drink (except water) for at least 1 h before the test. During the test, panelists were instructed to sip each sample, swirl it around their mouth and then expectorate. After tasting each sample in the pair, panelists were instructed to record the sample that is “sweeter” in taste. Panelists cleansed their palates by rinsing with water, eating a cracker and waiting for an interval of about 5 minutes. Each pair was tasted twice. All samples were tasted at ambient temperatures. Data were analyzed using binomial probabilities.
Approximate levels of sweetness enhancement in column 5 of Table 2 were calculated as follows:
Approximate levels of sweetness enhancement=Sweetener concentration of positive control surpassed by the test sample, divided by sweetener concentration for compound-containing sample (e.g. 1.15×=5.75% sucrose/5% sucrose).

Where [3] appears, read: test sample 4% fructose, compound 25 ppm with positive 2AFC.

For `COc1ccc(C2CC(=O)c3c(O)cccc3O2)cc1O` (single isomer, unassigned) [Compound 3, 5-hydroxy-2-(3-hydroxy-4-methoxyphenyl)chroman-4-one], the entries for the “Correlated Inherent Sweetness Assessment” value in experiment [1] (compound 10 ppm in water) and in experiment [1] (compound 15 ppm in water) were 0.5%-1% sucrose and 1% sucrose, respectively. For the same compound, the “Fold increase in perceived sweetness” value was greater than 1.25X in experiment [2] (setting [3]); greater than 1.20X in experiment [2] (test sample 5% sucrose, compound 15 ppm with positive 2AFC, positive control surpassed / test sweetener concentration); greater than 1.20X in experiment [2] (test sample 6.5% glucose, compound 25 ppm with positive 2AFC).

In the case of `COc1ccc(C2CC(=O)c3c(O)cccc3O2)cc1O` (single isomer, unassigned) [Compound 2, 5-hydroxy-2-(3-hydroxy-4-methoxyphenyl)chroman-4-one], the results for the “Correlated Inherent Sweetness Assessment” value in experiment [1] (compound 10 ppm in water) and in experiment [1] (compound 15 ppm in water) were 0.5%-1% sucrose and 1% sucrose, respectively. The “Fold increase in perceived sweetness” value in experiment [2] (setting [3]) is greater than 1.20X; in experiment [2] (test sample 5% sucrose, compound 15, 25 ppm with positive 2AFC), greater than 1.20X; in experiment [2] (test sample 6.5% glucose, compound 10, 20, 25 ppm with positive 2AFC), greater than 1.15X.
